Laboratory results from patent US10294202B2, “Pyrrolidinones as herbicides” (FMC Corporation, priority 2013, dated 2019).

Legend:
[1] = tested on: sedge, umbrella; assay: Test B flooded paddy test; assay type: in vivo, Cyperus difformis; details: 250 g ai/ha, Flood; scale of 0 to 100 where 0 is no effect and 100 is complete control
How it was run: (§1)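 Plants grown to 2-leaf stage; pots flooded 3 cm above soil and compound applied directly into paddy water, depth held throughout. Visual rating against untreated controls after 13 to 15 days in greenhouse, 0 (no effect) to 100 (complete control).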

[2] = tested on: barnyardgrass; assay: Test A pre-/postemergence herbicide test; assay type: in vivo, Echinochloa crus-galli; details: for Barnyardgrass plant response rating: Preemergence, visual rating on 0 to 100 scale (0 no effect, 100 complete control)
How it was run: (§2)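 Visual 0–100 ratings (100 = complete control) made about 10 days after treatment, greenhouse-held plants compared with untreated controls. Treatments: postemergence sprays on one- to two-leaf plants (2–10 cm tall) and preemergence directed soil sprays after planting in loam–sand, chemicals formulated in non-phytotoxic solvent containing surfactant.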

[3] = tested on: crabgrass, large; assay: Test A pre-/postemergence herbicide test; assay type: in vivo, Digitaria sanguinalis; details: for Crabgrass, Large plant response rating: Preemergence, visual rating on 0 to 100 scale (0 no effect, 100 complete control)
How it was run: as §2

[4] = tested on: giant foxtail; assay: Test A pre-/postemergence herbicide test; assay type: in vivo, Setaria faberii; details: for Foxtail, Giant plant response rating: Preemergence, visual rating on 0 to 100 scale (0 no effect, 100 complete control)
How it was run: as §2

[5] = tested on: velvetleaf; assay: Test A pre-/postemergence herbicide test; assay type: in vivo, Abutilon theophrasti; details: for Velvetleaf plant response rating: Preemergence, visual rating on 0 to 100 scale (0 no effect, 100 complete control)
How it was run: as §2

[6] = tested on: ducksalad; assay: Test B flooded paddy test; assay type: in vivo, Heteranthera limosa; details: 250 g ai/ha, Flood; scale of 0 to 100 where 0 is no effect and 100 is complete control
How it was run: as §1

[7] = tested on: corn; assay: Test A pre-/postemergence herbicide test; assay type: in vivo, Zea mays; details: for Corn plant response rating: Preemergence, visual rating on 0 to 100 scale (0 no effect, 100 complete control)
How it was run: as §2

[8] = tested on: morningglory; assay: Test A pre-/postemergence herbicide test; assay type: in vivo, Ipomoea spp.; details: for Morningglory plant response rating: Preemergence, visual rating on 0 to 100 scale (0 no effect, 100 complete control)
How it was run: as §2

[9] = tested on: rice; assay: Test B flooded paddy test; assay type: in vivo, Oryza sativa; details: 250 g ai/ha, Flood; scale of 0 to 100 where 0 is no effect and 100 is complete control
How it was run: as §1

[10] = tested on: barnyardgrass; assay: Test B flooded paddy test; assay type: in vivo, Echinochloa crus-galli; details: 250 g ai/ha, Flood; scale of 0 to 100 where 0 is no effect and 100 is complete control
How it was run: as §1

[11] = tested on: wheat; assay: Test A pre-/postemergence herbicide test; assay type: in vivo, Triticum aestivum; details: for Wheat plant response rating: Preemergence, visual rating on 0 to 100 scale (0 no effect, 100 complete control)
How it was run: as §2

[12] = tested on: pigweed; assay: Test A pre-/postemergence herbicide test; assay type: in vivo, Amaranthus retroflexus; details: for Pigweed plant response rating: Preemergence, visual rating on 0 to 100 scale (0 no effect, 100 complete control)
How it was run: as §2

[13] = Postemergence, 125 g ai/ha, 0 to 100 scale, 0 no effect, 100 complete control
[14] = Postemergence, 500 g ai/ha, 0 to 100 scale (0 no effect, 100 complete control)
[15] = preemergence, 500 g ai/ha, 0 to 100 scale (0 no effect, 100 complete control)
[16] = preemergence, 500 g ai/ha, 0 to 100 scale

Which “Plant response rating, Sedge, Umbrella” value [1] does the source give for `O=C1NCC(c2ccccc2)C1C(=O)Nc1cccc(F)c1F` (stereo not drawn) [Compound 65] here?
Its value is 40.

What about the “Plant response rating, Barnyardgrass” value [2, 13] of the same compound?
Its value is 20.

What about the “Plant response rating, Barnyardgrass” value [2, 14] of the same compound?
The value was 70.

What about the “Barnyardgrass plant response rating” value ([2]; 125 g ai/ha) of the same compound?
The value was 40.

And the “Plant response rating, Barnyardgrass” value [2, 15]?
Its value is 90.

What about the “Plant response rating, Crabgrass, Large” value [3, 13] of the same compound?
The value was 90.

What about the “Plant response rating, Crabgrass, Large” value [3, 14] of the same compound?
The value was 90.

And the “Crabgrass, Large plant response rating” value ([3]; 125 g ai/ha)?
The value was 90.

And the “Plant response rating, Crabgrass, Large” value [3, 16]?
The value was 90.

What about the “Plant response rating, Foxtail, Giant” value [4, 13] of the same compound?
The value was 50.

And the “Plant response rating, Foxtail, Giant” value [4, 14]?
Its value is 90.

And the “Foxtail, Giant plant response rating” value ([4]; 125 g ai/ha)?
Its value is 80.

And the “Plant response rating, Foxtail, Giant” value [4, 16]?
The value was 90.

What about the “Plant response rating, Velvetleaf” value [5, 13] of the same compound?
Its value is 0.

And the “Plant response rating, Velvetleaf” value [5, 14]?
Its value is 30.

What about the “Velvetleaf plant response rating” value ([5]; 125 g ai/ha) of the same compound?
The value was 0.

What about the “Plant response rating, Velvetleaf” value [5, 16] of the same compound?
The value was 0.

What about the “Plant response rating, Ducksalad” value [6] of the same compound?
Its value is 80.

What about the “Plant response rating, Corn” value [7, 13] of the same compound?
Its value is 0.

And the “Plant response rating, Corn” value [7, 14]?
The value was 20.

And the “Corn plant response rating” value ([7]; 125 g ai/ha)?
Its value is 0.

What about the “Plant response rating, Corn” value [7, 16] of the same compound?
Its value is 0.

What about the “Plant response rating, Morningglory” value [8, 13] of the same compound?
The value was 0.

And the “Plant response rating, Morningglory” value [8, 14]?
The value was 20.

And the “Morningglory plant response rating” value ([8]; 125 g ai/ha)?
Its value is 0.

What about the “Plant response rating, Morningglory” value [8, 16] of the same compound?
The value was 0.

What about the “Plant response rating, Rice” value [9] of the same compound?
Its value is 0.

And the “Plant response rating, Barnyardgrass” value [10]?
The value was 0.

What about the “Plant response rating, Wheat” value [11, 13] of the same compound?
Its value is 0.

What about the “Plant response rating, Wheat” value [11, 14] of the same compound?
Its value is 20.

And the “Wheat plant response rating” value ([11]; 125 g ai/ha)?
The value was 0.

What about the “Plant response rating, Wheat” value [11, 16] of the same compound?
The value was 0.

What about the “Plant response rating, Pigweed” value [12, 13] of the same compound?
Its value is 0.

And the “Plant response rating, Pigweed” value [12, 14]?
Its value is 0.

And the “Pigweed plant response rating” value ([12]; 125 g ai/ha)?
The value was 0.

What about the “Plant response rating, Pigweed” value [12, 16] of the same compound?
The value was 0.

`O=C1NCC(c2ccc(F)c(F)c2)C1C(=O)Nc1cccc(F)c1C(F)(F)F` (stereo not drawn) [Compound 67] was tested. Which “Plant response rating, Sedge, Umbrella” value [1] did it give?
Its value is 50.

What about the “Plant response rating, Barnyardgrass” value [2, 13] of the same compound?
The value was 40.

And the “Plant response rating, Barnyardgrass” value [2, 14]?
The value was 60.

And the “Barnyardgrass plant response rating” value ([2]; 125 g ai/ha)?
The value was 30.

And the “Plant response rating, Barnyardgrass” value [2, 15]?
Its value is 70.

What about the “Plant response rating, Crabgrass, Large” value [3, 13] of the same compound?
The value was 50.

What about the “Plant response rating, Crabgrass, Large” value [3, 14] of the same compound?
The value was 90.

What about the “Crabgrass, Large plant response rating” value ([3]; 125 g ai/ha) of the same compound?
The value was 90.

And the “Plant response rating, Crabgrass, Large” value [3, 16]?
Its value is 90.

What about the “Plant response rating, Foxtail, Giant” value [4, 13] of the same compound?
The value was 80.

What about the “Plant response rating, Foxtail, Giant” value [4, 14] of the same compound?
Its value is 90.

What about the “Foxtail, Giant plant response rating” value ([4]; 125 g ai/ha) of the same compound?
Its value is 80.

And the “Plant response rating, Foxtail, Giant” value [4, 16]?
Its value is 90.

And the “Plant response rating, Velvetleaf” value [5, 13]?
Its value is 0.

And the “Plant response rating, Velvetleaf” value [5, 14]?
The value was 0.

And the “Velvetleaf plant response rating” value ([5]; 125 g ai/ha)?
The value was 0.

And the “Plant response rating, Velvetleaf” value [5, 16]?
Its value is 0.

What about the “Plant response rating, Ducksalad” value [6] of the same compound?
Its value is 70.

And the “Plant response rating, Corn” value [7, 13]?
Its value is 0.

And the “Plant response rating, Corn” value [7, 14]?
The value was 0.

And the “Corn plant response rating” value ([7]; 125 g ai/ha)?
Its value is 0.

What about the “Plant response rating, Corn” value [7, 16] of the same compound?
The value was 0.

And the “Plant response rating, Morningglory” value [8, 13]?
The value was 0.

What about the “Plant response rating, Morningglory” value [8, 14] of the same compound?
The value was 0.

What about the “Morningglory plant response rating” value ([8]; 125 g ai/ha) of the same compound?
The value was 0.

And the “Plant response rating, Morningglory” value [8, 16]?
The value was 0.

What about the “Plant response rating, Rice” value [9] of the same compound?
The value was 0.

And the “Plant response rating, Barnyardgrass” value [10]?
Its value is 0.

And the “Plant response rating, Wheat” value [11, 13]?
The value was 0.

And the “Plant response rating, Wheat” value [11, 14]?
Its value is 0.

What about the “Wheat plant response rating” value ([11]; 125 g ai/ha) of the same compound?
Its value is 0.

What about the “Plant response rating, Wheat” value [11, 16] of the same compound?
Its value is 0.

And the “Plant response rating, Pigweed” value [12, 13]?
Its value is 0.

What about the “Plant response rating, Pigweed” value [12, 14] of the same compound?
The value was 20.

What about the “Pigweed plant response rating” value ([12]; 125 g ai/ha) of the same compound?
The value was 0.

What about the “Plant response rating, Pigweed” value [12, 16] of the same compound?
The value was 0.
